Assay results published in patent US20030023104A1, “Therapeutic compound - fatty acid conjugates” (COMMONWEALTH SCIENTIFIC AND INDUSTRIAL RESEARCH ORGANISATION, priority 1995, published 2003).
pEC50, pIC50: −log10 of the molar value.

Legend:
[1] = system: JURKAT cells (acute T cell human leukemia)
Protocol: The cytotoxicity of chlorambucil and chlorambucil fatty acid conjugates (CGTP1. P2 and P3) were tested in vitro with JURKAT cells (acute T cell human leukemia). Cells were incubated with drug and viability was determined by a colourmetric proliferation test. Cytotoxicity towards other cells lines was also tested (PC3 human prostate cancer cells, B16 mouse melanoma cells and human peripheral blood mononuclear cells).
JURKAT cells were seeded into 96-well plates at a density of 1.6×10^4 cells/200 μl complete RPMI ± drug and cultured for 64 h. A 1:3 split of confluent PC3 cells in a 75 cm^2 flask were seeded into a 96-well plate and cultured for 48 h in complete RPMI. Media was removed and complete RPMI ± drug was added to wells. Cells were further cultured for 72 h.
i) Ethanol. Drugs were dissolved in ethanol and added to culture media. The final concentration of ethanol in media was no greater than 1% (v/v). This delivery was used for experiments with JURKAT, PBMC, PC3 and B16 cell types.
ii) Coating of plates. Drugs were dissolved in ethanol and aliquots (up to 40 μl) were added to 90% (v/v) isopropanol. Solution (50 μl) was then added to wells of a 96-well plate and the solvent evaporated by heating at 37° C. Media ± cells was then added. This delivery was used for some experiments with JURKAT cells.
Viability was determined using the MTS assay (CellTiter 96TM AQueous Non-Radioactive Cell Proliferation Assay) from Promega. Reagent (40 μl) was added to each well and absorbance values at 490 nm were determined 1 to 4 h later. The effect of drug on cell viability was compared to cultures set up containing no drug (100% viability). Wells containing no cells were used to control for background absorbance (0% viability). Each concentration was tested in at least 3 wells. Concentrations necessary to cause a 50% inhibition of cellular growth of control cells (IC50) were calculated by linear regression.

[2] = system: UVB induced oedema; test: UVB erythema assay (net skin fold thickness); format: in vivo, Skh-1 hairless albino female mice
[3] = system: UVB induced immunosuppression; test: Contact Hypersensitivity Assay (oxazolone, net ear swelling); format: in vivo, mice; settings: 0.5% (0.5 mg/mouse) painted within 10 minutes post UVB exposure, total 3 MED UVB
From the text: The assay used the method described in “Current Protocols in Immunology” (Vol 1, Section 4.2 Eds Coligan et al. (1991) NIH). The sensitiser was Oxazalone. Briefly this method was as follows:
UVB Radiation. Mice were irradiated with a single FL40SE UVB fluorescent tube (Oliphant) in a reflective batten, providing […] UVB radiation measured at target distance using an International Light IL1700 radiometer with a UVB detector sensitive between 250-315 nm. The mice received 0.1179 J/cm^2 UVB radiation, constituting 1 minimal erythemal dose (MED) as previously ascertained, on each of 3 consecutive days, being exposed unrestrained with the wire cage tops removed.
Induction of Systemic Contact Hypersensitivity. Test mice were exposed on the dorsum to 1 MED UVB radiation (or no UVB radiation) at the same hour on days 1, 2 and 3. On days 8 and 9, the mice (irradiated and non-irradiated) were sensitized by topical application to the abdominal skin of 0.1 ml of 3% (w/v) oxazolone (Sigma Chemical Co., St Louis, Mo.) freshly prepared in ethanol. On day 15, the pre-challenge ear thickness was measured using the spring micrometer, and the mice were then challenged by the application of 5 ul freshly prepared 3% oxazolone/ethanol solution to both surfaces of each pinna. Ear thickness was again measured repeatedly between 16-24 hours, and the maximum ear thickness was recorded. The net ear swelling was calculated as the difference between the average pre-challenge and the average post-challenge ear thickness for each treatment group. Statistical significance of the differences in net ear swelling between treatment groups was assessed with Student's t test.
The mice were painted with vehicle, 0.5 mg/mouse HC, 0.5 mg/mouse HC-Suc-GTP2. 1 mg/mouse 17-b HC-Suc-GTP3 or 17-b HC within 10 minutes post UVB exposure. A total of 3 MED of unshielded UVB was used. (Table 3)

[4] = system: JM (semi mature human T-cell from lymphoblastoid leukemia); test: Cell growth (cytotoxicity) in JM cells; format: cell-based; settings: 5 days, read-out: IC50 (concentration of drug which reduces cell growth by 50%)
Protocol: (§1) The anti-HIV activities of AZT-Suc-GTP1 and AZT-Suc-GTP2 were also tested. Infected cells were incubated for 5 days with compound. Compounds were dissolved in DMSO and 5-fold dilutions were used. The following parameters were measured: syncytia formation, virus antigen gp120 production, cell survival. Cytotoxicity is also measured in uninfected cells.
(§2) JM (semi mature human T-cell from lymphoblastoid leukemia) infected with HIV-I U4550
IC50=concentration of drug which reduces cell growth by 50%.

[5] = system: HIV-I U4550; test: Anti HIV activity, Ag gp120 production in infected JM cells; format: cell-based; settings: JM cells infected with HIV-I U4550, 5 days; read-out: EC50 (concentration which reduces Ag gp120 by 50% in infected cell cultures)
Protocol: as §1, §2
EC50=concentration which reduces Ag gp120by 50% in infected cell cultures.

[6] = 0.5 mg/mouse topical in ethanol, applied Day −5 (5 days prior to UV exposure), 2MED UVB, measured 24 h
[7] = 0.5 mg/mouse topical, applied Day 0 after UV exposure, 2MED UVB
[8] = 0.5 mg/mouse topical, applied Day −3 (3 days prior to UV exposure), 2MED UVB
[9] = 1 mg/mouse (1% w/v) topical, applied Day 0 after UV exposure
[10] = 1 mg/mouse (1% w/v) topical, applied Day −3

SMILES | cytotoxicity to JURKAT cells (in words) [1] | Mean Net Skin Fold Thickness [2, 6] | Mean Net Skin Fold Thickness [2, 7] | Mean Net Skin Fold Thickness [2, 8] | activity equivalent to % of the hydrocortisone activity in protecting against UVB induced oedema ([2]; 0.5 mg/mouse, applied at Day 0, post UVB exposure) | Mean Net Skin Fold Thickness [2, 9] | Mean Net Skin Fold Thickness [2, 10] | Net Ear Swelling [3] | protection from erythema and oedema ([2]; 0.5 mg/mouse topical in ethanol after 2 MED UVB, 24 h) [%] | Mean Net Skin Fold Thickness ([2]; 1 mg/mouse (1% w/v) topical, applied Day −5) | pIC50 [4] | pEC50 [5]
CCCCCCCCCCCCCCCC(=O)OCC(CO)(CO)NC(=O)CN [GTP1, Glycine-Tris-Monopalmitate, reference compound] | no activity |  |  |  |  |  |  |  |  |  |  | 
CCCCCCCCCCCCCCCC(=O)OCC(CO)(COC(=O)CCCCCCCCCCCCCCC)NC(=O)CNC(=O)CCC(=O)OCC(=O)C1(O)CCC2C3CCC4=CC(=O)CCC4(C)C3C(O)CC21C (stereo not drawn) [HC-Suc-GTP2, Hydrocortisone-Suc-Gly-Tris-Dipalmitate] |  | 104.2 ± 14.7 10^−2 mm | 60.6 ± 8.6 10^−2 mm | 94.3 ± 10.3 10^−2 mm | approximately 50% | 57.5 ± 10.9 | 60.8 ± 8.8 | 29.8 10^−2 mm |  |  |  | 
C[C@]12CCC(=O)C=C1CC[C@@H]1[C@@H]2[C@@H](O)C[C@@]2(C)[C@H]1CC[C@]2(O)C(=O)CO [Hydrocortisone, hydrocortisone (cortisol or 17 hydroxy corticosterone), reference compound] |  | 102.7 ± 12.1 10^−2 mm | 10.4 ± 8.19 10^−2 mm | 100.9 ± 7.3 10^−2 mm |  | 7.9 ± 4.4 | 62.9 ± 4.0 | 32.0 10^−2 mm | ~100 | 108.3 ± 5.1 |  | 
O=c1[nH]cnc2c1ncn2[C@H]1CC[C@@H](CO)O1 [ddI, reference compound] |  |  |  |  |  |  |  |  |  |  | < 4.00 | 6.00
